Molecules are shown by their SMILES.

This note sets out measurements from patent US9163021B2, “Pyrrolo[3,2-c]pyridine tropomyosin-related kinase inhibitors” (Pfizer Limited, priority 2012, dated 2015).

This test deals with TRKA (Homo sapiens (Human), UniProt P04629). In words: Isolated TRK enzyme assay (HTRF KinEASE-TK), PV3144 TrkA enzyme assay. In kind it is biochemical. The note with it: arithmetic mean where more than one reading. In short, it runs like this: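 Kinase (recombinant His-TrkA cytoplasmic domain, ATP-preactivated 20 min) met compound 20 min, then biotinylated TK substrate (1 µM final) with Mg2+/DTT buffer; HTRF detection.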
Chain of TRKA (P04629 441-796): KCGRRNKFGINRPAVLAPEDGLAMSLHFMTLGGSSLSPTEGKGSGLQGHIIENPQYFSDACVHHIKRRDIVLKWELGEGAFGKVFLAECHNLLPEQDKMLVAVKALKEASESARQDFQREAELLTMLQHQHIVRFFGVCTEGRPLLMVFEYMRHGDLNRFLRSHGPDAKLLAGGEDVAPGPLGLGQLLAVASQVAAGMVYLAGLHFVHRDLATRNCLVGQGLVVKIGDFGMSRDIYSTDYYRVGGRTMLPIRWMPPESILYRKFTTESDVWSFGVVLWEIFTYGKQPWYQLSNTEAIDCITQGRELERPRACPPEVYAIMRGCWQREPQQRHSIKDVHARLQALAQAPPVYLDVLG
`Cc1nc(C)c(CC(=O)Nc2cc(C(=O)c3cn(C(C)C)c4ccncc34)ccn2)s1` [Example 167, 2-(2,4-dimethyl-1,3-thiazol-5-yl)-N-(4-{[1-(propan-2-yl)-1H-pyrrolo[3,2-c]pyridin-3-yl]carbonyl}pyridin-2-yl)acetamide] showed a half-inhibitory concentration (IC50) of 0.181 µM.
For `Cc1ccnn1CC(=O)Nc1cc(C(=O)c2cn(C(C)C)c3ccncc23)ccn1` [Example 169, 2-(5-methyl-1H-pyrazol-1-yl)-N-(4-{[1-(propan-2-yl)-1H-pyrrolo[3,2-c]pyridin-3-yl]carbonyl}pyridin-2-yl)acetamide] the value was 0.0836 µM.
For `CC(C)n1cc(C(=O)c2ccnc(NC(=O)Cn3cnnn3)c2)c2cnccc21` [Example 170, N-(4-{[1-(propan-2-yl)-1H-pyrrolo[3,2-c]pyridin-3-yl]carbonyl}pyridin-2-yl)-2(1H-tetrazol-1-yl)acetamide] the value was 6.51 µM; for `CC(C)n1cc(C(=O)c2ccnc(NC(=O)Cc3nc(C(C)(C)C)nn3C)c2)c2cnccc21` [Example 171, 2(3-tert-butyl-1-methyl-1H-1,2,4-triazol-5-yl)-N-(4-{[1-(propan-2-yl)-1H-pyrrolo[3,2-c]pyridin-3-yl]carbonyl}pyridin-2-yl)acetamide], 0.0361 µM.
For `CC(C)n1cc(C(=O)c2ccnc(NC(=O)Cc3ccc(C(F)(F)F)c(F)c3)c2)c2cnccc21` [Example 172, 2-(3-fluoro-4-(trifluoromethyl)phenyl]-N-(4-{[1-(propan-2-yl)-1H-pyrrolo[3,2-c]pyridin-3-yl]carbonyl}-pyridin-2-yl)acetamide] the value was 0.00849 µM; for `CC(C)n1cc(C(=O)c2ccnc(NC(=O)c3cccc(OC(F)(F)F)c3)c2)c2cnccc21` [Example 173, N-(4-{[1-(propan-2-yl)-1H-pyrrolo[3,2-c]pyridin-3-yl]carbonyl}pyridin-2-yl)-3-(trifluoromethoxy)-benzamide], 0.00385 µM; for `Cc1nc(CC(=O)Nc2cc(C(=O)c3cn(C(C)C)c4ccncc34)ccn2)c(C2CC2)o1` [Example 174, 2(5-cyclopropyl-2-methyl-1,3-oxazol-4-yl)-N-(4-{[1-(propan-2-yl)-1H-pyrrolo[3,2-c]pyridin-3-yl]carbonyl}pyridin-2-yl)acetamide], 0.0514 µM.
In turn, `CC(C)n1cc(C(=O)c2ccnc(NC(=O)Cc3ccc(C(F)(F)F)cc3)c2)c2cnccc21` [Example 175, N-(4-{[1-(propan-2-yl)-1H-pyrrolo[3,2-c]pyridin-3-yl]carbonyl}pyridin-2-yl)-2-[4-(trifluoromethyl)phenyl]acetamide] registered an IC50 of 0.0053 µM.
Turning to `COCc1cn(CC(=O)Nc2cc(C(=O)c3cn(C(C)C)c4ccncc34)ccn2)nn1` [Example 176], half-maximal inhibition (IC50) required 0.904 µM.
Compound `Cc1cc(CC(=O)Nc2cc(C(=O)c3cn(C(C)C)c4ccncc34)ccn2)[nH]n1` [Example 177, 2(3-methyl-1H-pyrazol-5-yl)-N-(4-{[1-(propan-2-yl)-1H-pyrrolo[3,2-c]pyridin-3-yl]carbonyl}pyridin-2-yl)acetamide] returned an IC50 of 0.102 µM.
For `CC(C)n1ncc(CC(=O)Nc2cc(C(=O)c3cn(C(C)C)c4ccncc34)ccn2)c1C(F)(F)F` [Example 178, N-(4-{[1-(propan-2-yl)-1H-pyrrolo[3,2-c]pyridin-3-yl]carbonyl}pyridin-2-yl)-2-[1-(propan-2-yl)-5-(trifluoromethyl)-1H-pyrazol-4-yl]acetamide] the value was 0.022 µM.
With `Cc1nc(CC(=O)Nc2cc(C(=O)c3cn(C(C)C)c4ccncc34)ccn2)c(C)o1` [Example 179, 2-(2,5-dimethyl-1,3-oxazol-4-yl)-N-(4-{[1-(propan-2-yl)-1H-pyrrolo[3,2-c]pyridin-3-yl]carbonyl}pyridin-2-yl)acetamide], the IC50 was 0.163 µM.
As for `CC(C)n1cc(C(=O)c2ccnc(NC(=O)Cc3ccon3)c2)c2cnccc21` [Example 180, 2-(1,2-oxazol-3-yl)-N-(4-{[1-(propan-2-yl)-1H-pyrrolo[3,2-c]pyridin-3-yl]carbonyl}pyridin-2-yl)acetamide], the concentration for half-maximal inhibition (IC50) came to 1.08 µM.
To `CC(C)n1cc(C(=O)c2ccnc(NC(=O)Cc3cscn3)c2)c2cnccc21` [Example 181, N-(4-{[1-(propan-2-yl)-1H-pyrrolo[3,2-c]pyridin-3-yl]carbonyl}pyridin-2-yl)-2(1,3-thiazol-4-yl)acetamide] belongs 0.536 µM; to `CC(C)n1cc(C(=O)c2ccnc(NC(=O)Cc3ccccc3OC(F)(F)F)c2)c2cnccc21` [Example 182, N-(4-{[1-(propan-2-yl)-1H-pyrrolo[3,2-c]pyridin-3-yl]carbonyl}pyridin-2-yl)-2-[2-(trifluoromethoxy)phenyl]acetamide], 0.0261 µM; to `CC(C)n1cc(C(=O)c2ccnc(NC(=O)Cc3ccc(C#N)cc3)c2)c2cnccc21` [Example 183, 2-(4-cyanophenyl)-N-(4-{[1-(propan-2-yl)-1H-pyrrolo[3,2-c]pyridin-3-yl]carbonyl}pyridin-2-yl)acetamide], 0.0177 µM.
For `Cc1n[nH]c(CC(=O)Nc2cc(C(=O)c3cn(C(C)C)c4ccncc34)ccn2)n1` [Example 184, 2-(3-methyl-1H-1,2,4-triazol-5-yl)-N-(4-{[1-(propan-2-yl)-1H-pyrrolo[3,2-c]pyridin-3-yl]carbonyl}pyridin-2-yl)acetamide], 3.18 µM corresponded to half-maximal inhibition (IC50).
`CC(C)n1cc(C(=O)c2ccnc(NC(=O)Cc3cncs3)c2)c2cnccc21` [Example 185, N-(4-{[1-(propan-2-yl)-1H-pyrrolo[3,2-c]pyridin-3-yl]carbonyl}pyridin-2-yl)-2(1,3-thiazol-5-yl)acetamide] yielded an IC50 of 1.86 µM. Against the preceding compound, the IC50 is about 1.7-fold lower.
`CC(C)n1cc(C(=O)c2ccnc(NC(=O)Cc3ccc(F)cc3)c2)c2cnccc21` [Example 186, 2(4-fluorophenyl)-N-(4-{[1-(propan-2-yl)-1H-pyrrolo[3,2-c]pyridin-3-yl]carbonyl}pyridin-2-yl)acetamide] yielded an IC50 of 0.0133 µM.
`CC(C)n1cc(C(=O)c2ccnc(NC(=O)Cc3nnn[nH]3)c2)c2cnccc21` [Example 187] showed an IC50 of 9.8 µM.
`CC(C)n1cc(C(=O)c2ccnc(NC(=O)Cn3cc(C(C)(C)O)nn3)c2)c2cnccc21` [Example 188]: the IC50 came out at 0.477 µM.
As for `CC(C)n1cc(C(=O)c2ccnc(NC(=O)Cc3coc(C4CC4)n3)c2)c2cnccc21` [Example 189, 2-(2-cyclopropyl-1,3-oxazol-4-yl)-N-(4-{[1-(propan-2-yl)-1H-pyrrolo[3,2-c]pyridin-3-yl]carbonyl}pyridin-2-yl)acetamide], the 50% inhibitory concentration (IC50) stood at 0.0136 µM.
To `CC(C)n1cc(C(=O)c2ccnc(NC(=O)Cn3nccn3)c2)c2cnccc21` [Example 190, N-(4-{[1-(propan-2-yl)-1H-pyrrolo[3,2-c]pyridin-3-yl]carbonyl}pyridin-2-yl)-2-(2H-1,2,3-triazol-2-yl)acetamide] belongs 0.775 µM; to `CC(C)n1cc(C(=O)c2ccnc(NC(=O)Cc3cccc(OC(F)(F)F)c3)c2)c2cnccc21` [Example 191, N-(4-{[1-(propan-2-yl)-1H-pyrrolo[3,2-c]pyridin-3-yl]carbonyl}pyridin-2-yl)-2-[3-(trifluoromethoxy)phenyl]acetamide], 0.00741 µM.
In the case of `CC(C)n1cc(C(=O)c2ccnc(NC(=O)Cc3nnnn3C)c2)c2cnccc21` [Example 192, 2-(1-methyl-1H-tetrazol-5-yl)-N-(4-{[1-(propan-2-yl)-1H-pyrrolo[3,2-c]pyridin-3-yl]carbonyl}pyridin-2-yl)acetamide], 9.8 µM corresponded to half-maximal inhibition (IC50).
For `CC(C)n1cc(C(=O)c2ccnc(NC(=O)Cn3cncn3)c2)c2cnccc21` [Example 193, N-(4-{[1-(propan-2-yl)-1H-pyrrolo[3,2-c]pyridin-3-yl]carbonyl}pyridin-2-yl)-2-(1H-1,2,4-triazol-1-yl)acetamide] the value was 10.1 µM; for `O=C(Cc1cccc(OC(F)(F)F)c1)Nc1cc(C(=O)c2cn(C3COC3)c3ccncc23)ccn1` [Example 194, N-(4-{[1-(oxetan-3-yl)-1H-pyrrolo[3,2-c]pyridin-3-yl]carbonyl}pyridin-2-yl)-2-[3-(trifluoromethoxy)phenyl]acetamide], 0.0138 µM; for `N#Cc1ccc(CC(=O)Nc2cc(C(=O)c3cn(C4COC4)c4ccncc34)ccn2)cc1` [Example 195, 2-(4-cyanophenyl)-N-(4-{[1-(oxetan-3-yl)-1H-pyrrolo[3,2-c]pyridin-3-yl]carbonyl}pyridin-2-yl)acetamide], 0.203 µM.
The compound `O=C(Cc1ccc(F)cn1)Nc1cc(C(=O)c2cn(C3COC3)c3ccncc23)ccn1` [Example 196, 2-(5-fluoropyridin-2-yl)-N-(4-{[1-(oxetan-3-yl)-1H-pyrrolo[3,2-c]pyridin-3-yl]carbonyl}pyridin-2-yl)acetamide] gave an IC50 of 1.28 µM.
To `O=C(Cc1coc(C2CC2)n1)Nc1cc(C(=O)c2cn(C3COC3)c3ccncc23)ccn1` [Example 197, 2-(2-cyclopropyl-1,3-oxazol-4-yl)-N-(4-{[1-(oxetan-3-yl)-1H-pyrrolo[3,2-c]pyridin-3-yl]carbonyl}pyridin-2-yl)acetamide] belongs 0.525 µM; to `O=C(Cc1ccc(F)cc1F)Nc1cc(C(=O)c2cn(C3COC3)c3ccncc23)ccn1` [Example 198, 2-(2,4-difluorophenyl)-N-(4-{[1-(oxetan-3-yl)-1H-pyrrolo[3,2-c]pyridin-3-yl]carbonyl}pyridin-2-yl)acetamide], 0.105 µM; to `CC(C)c1cn(CC(=O)Nc2cc(C(=O)c3cn(C4COC4)c4ccncc34)ccn2)nn1` [Example 199, N-(4-{[1-(oxetan-3-yl)-1H-pyrrolo[3,2-c]pyridin-3-yl]carbonyl}pyridin-2-yl)-2-[4-(propan-2-yl)-1H-1,2,3-triazol-1-yl]acetamide], 0.186 µM.
With `Cc1oc(C2CC2)nc1CC(=O)Nc1cc(C(=O)c2cn(C3COC3)c3ccncc23)ccn1` [Example 200, 2-(2-cyclopropyl-5-methyl-1,3-oxazol-4-yl)-N-(4-{[1-(oxetan-3-yl)-1H-pyrrolo[3,2-c]pyridin-3-yl]carbonyl}pyridin-2-yl)acetamide], the IC50 stood at 0.174 µM. This IC50 and that of the compound before are within 1.5-fold of each other.
For `CC(C)n1ncc(CC(=O)Nc2cc(C(=O)c3cn(C4COC4)c4ccncc34)ccn2)c1C(F)(F)F` [Example 201] the value was 0.314 µM.
